The source of these data is PubChem BioAssay AID248 (DTP/NCI, 2004).

Molecules are shown by their SMILES. “And” between values parts separate entries of the source, which are not always exact repeats. Equal values may be shown once. Toxic doses and inconclusive results are not listed.

For the assay, the system named is L1210 leukemia ip in BDF1 mice, survival T/C. Nature of the assay: NCI In Vivo Anticancer Drug Screen. Data for tumor model L1210 Leukemia (intraperitoneal) in B6D2F1 (BDF1) mice. Conditions: higher = longer survival. A digest of the protocol:
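Tumor was transplanted into mice, which were then dosed with test compound or vehicle alone. Survival was recorded for each group, and the treated figure was expressed relative to the control figure.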

Where [1] appears, read: endpoint: mean survival time, dose: 100.0 mg/kg/injection, schedule: Q01DX001 (ip), vehicle: carboxymethylcellulose (CMC).
The mark [2] stands for this setting: endpoint: mean survival time, dose: 200.0 mg/kg/injection, schedule: Q01DX001 (ip), vehicle: carboxymethylcellulose (CMC).
[3] abbreviates: endpoint: mean survival time, dose: 400.0 mg/kg/injection, schedule: Q01DX001 (ip), vehicle: carboxymethylcellulose (CMC).

Regarding `O=C(CCBr)N1CCN(C(=O)CCBr)CC1`, the T/C is 86 % of control (endpoint: mean survival time, dose: 1.33 mg/kg/injection, schedule: Q#B X Z (ip), vehicle: carboxymethylcellulose (CMC)); 108 % of control (endpoint: mean survival time, dose: 2.66 mg/kg/injection, schedule: Q#B X Z (ip), vehicle: carboxymethylcellulose (CMC)); 100 % of control (endpoint: mean survival time, dose: 3.2 mg/kg/injection, schedule: Q01DX Z (oral), vehicle: carboxymethylcellulose (CMC)); 103 % of control (endpoint: mean survival time, dose: 5.33 mg/kg/injection, schedule: Q#B X Z (ip), vehicle: carboxymethylcellulose (CMC)); 111 % of control (endpoint: mean survival time, dose: 5.5 mg/kg/injection, schedule: Q07DX006 (ip), vehicle: carboxymethylcellulose (CMC)); 120 % of control (endpoint: mean survival time, dose: 5.6 mg/kg/injection, schedule: Q01DX Z (ip), vehicle: methylcellulose (MC)). Also, the T/C is 94 % of control and 102 % of control (endpoint: mean survival time, dose: 10.0 mg/kg/injection, schedule: Q01DX009 (ip), vehicle: saline); 108 % of control and 117 % of control (endpoint: mean survival time, dose: 10.6 mg/kg/injection, schedule: Q01DX Z (ip), vehicle: carboxymethylcellulose (CMC)); 86 % of control (endpoint: mean survival time, dose: 10.66 mg/kg/injection, schedule: Q#B X Z (ip), vehicle: carboxymethylcellulose (CMC)); 90 % of control (endpoint: mean survival time, dose: 10.9 mg/kg/injection, schedule: Q07DX006 (ip), vehicle: carboxymethylcellulose (CMC)); 115 % of control (endpoint: mean survival time, dose: 11.25 mg/kg/injection, schedule: Q01DX Z (ip), vehicle: methylcellulose (MC)); 113 % of control (endpoint: mean survival time, dose: 12.0 mg/kg/injection, schedule: Q01DX006 (iv), vehicle: carboxymethylcellulose (CMC)). The T/C (endpoint: mean survival time, dose: 12.0 mg/kg/injection, schedule: Q01DX Z (im), vehicle: carboxymethylcellulose (CMC)) was 101 % of control; the T/C (endpoint: mean survival time, dose: 12.0 mg/kg/injection, schedule: Q01DX Z (ip), vehicle: carboxymethylcellulose (CMC)) was 95 % of control; the T/C (endpoint: mean survival time, dose: 12.0 mg/kg/injection, schedule: Q01DX Z (sc), vehicle: carboxymethylcellulose (CMC)) is 94 % of control; the T/C (endpoint: mean survival time, dose: 12.5 mg/kg/injection, schedule: Q01DX Z (oral), vehicle: carboxymethylcellulose (CMC)) was 110 % of control; the T/C (endpoint: mean survival time, dose: 16.0 mg/kg/injection, schedule: Q01DX Z (ip), vehicle: carboxymethylcellulose (CMC)) was 111 % of control; the T/C (endpoint: mean survival time, dose: 18.0 mg/kg/injection, schedule: Q01DX009 (ip), vehicle: saline) is 155 % of control and 158 % of control. For the same molecule, the T/C is 103 % of control and 108 % of control (endpoint: mean survival time, dose: 20.0 mg/kg/injection, schedule: Q01DX009 (ip), vehicle: saline); 106 % of control (endpoint: mean survival time, dose: 21.8 mg/kg/injection, schedule: Q07DX006 (ip), vehicle: carboxymethylcellulose (CMC)); 111 % of control (endpoint: mean survival time, dose: 24.0 mg/kg/injection, schedule: Q01DX Z (ip), vehicle: carboxymethylcellulose (CMC)); 99 % of control and 106 % of control and 111 % of control (endpoint: mean survival time, dose: 25.0 mg/kg/injection, schedule: Q01DX001 (ip), vehicle: saline); 94 % of control (endpoint: mean survival time, dose: 25.0 mg/kg/injection, schedule: Q01DX006 (iv), vehicle: carboxymethylcellulose (CMC)); 94 % of control (endpoint: mean survival time, dose: 25.0 mg/kg/injection, schedule: Q01DX Z (im), vehicle: carboxymethylcellulose (CMC)). Also, the T/C reads like this: (endpoint: mean survival time, dose: 25.0 mg/kg/injection, schedule: Q01DX Z (ip), vehicle: carboxymethylcellulose (CMC)) 98 % of control; (endpoint: mean survival time, dose: 25.0 mg/kg/injection, schedule: Q01DX Z (oral), vehicle: carboxymethylcellulose (CMC)) 120 % of control; (endpoint: mean survival time, dose: 25.0 mg/kg/injection, schedule: Q01DX Z (sc), vehicle: carboxymethylcellulose (CMC)) 103 % of control; (endpoint: mean survival time, dose: 36.0 mg/kg/injection, schedule: Q01DX009 (ip), vehicle: saline) 160 % of control and 186 % of control; (endpoint: mean survival time, dose: 36.0 mg/kg/injection, schedule: Q01DX Z (ip), vehicle: carboxymethylcellulose (CMC)) 150 % of control; (endpoint: mean survival time, dose: 37.0 mg/kg/injection, schedule: Q03DX008 (ip), vehicle: carboxymethylcellulose (CMC)) 104 % of control. Moreover, the T/C (endpoint: mean survival time, dose: 45.0 mg/kg/injection, schedule: Q01DX Z (ip), vehicle: methylcellulose (MC)) was 172 % of control; the T/C (endpoint: mean survival time, dose: 50.0 mg/kg/injection, schedule: Q01DX001 (ip), vehicle: saline) was 110 % of control and 111 % of control and 116 % of control; the T/C (endpoint: mean survival time, dose: 50.0 mg/kg/injection, schedule: Q01DX006 (iv), vehicle: carboxymethylcellulose (CMC)) is 113 % of control; the T/C (endpoint: mean survival time, dose: 50.0 mg/kg/injection, schedule: Q01DX Z (im), vehicle: carboxymethylcellulose (CMC)) is 110 % of control; the T/C (endpoint: mean survival time, dose: 50.0 mg/kg/injection, schedule: Q01DX Z (ip), vehicle: carboxymethylcellulose (CMC)) is 123 % of control; the T/C (endpoint: mean survival time, dose: 50.0 mg/kg/injection, schedule: Q01DX Z (sc), vehicle: carboxymethylcellulose (CMC)) is 116 % of control. The T/C was 183 % of control and 208 % of control (endpoint: mean survival time, dose: 54.0 mg/kg/injection, schedule: Q01DX009 (ip), vehicle: saline); 117 % of control (endpoint: mean survival time, dose: 81.0 mg/kg/injection, schedule: Q01DX Z (ip), vehicle: carboxymethylcellulose (CMC)); 155 % of control (endpoint: mean survival time, dose: 90.0 mg/kg/injection, schedule: Q01DX Z (ip), vehicle: methylcellulose (MC)); 103 % of control and 110 % of control under setting [1]; 121 % of control (endpoint: mean survival time, dose: 100.0 mg/kg/injection, schedule: Q01DX001 (ip), vehicle: saline); 123 % of control (endpoint: mean survival time, dose: 100.0 mg/kg/injection, schedule: Q01DX006 (iv), vehicle: carboxymethylcellulose (CMC)). Also, the T/C runs as follows: (endpoint: mean survival time, dose: 100.0 mg/kg/injection, schedule: Q01DX Z (ip), vehicle: carboxymethylcellulose (CMC)) 155 % of control; (endpoint: mean survival time, dose: 100.0 mg/kg/injection, schedule: Q01DX Z (oral), vehicle: carboxymethylcellulose (CMC)) 162 % of control; (endpoint: mean survival time, dose: 100.0 mg/kg/injection, schedule: Q04DX003 (ip), vehicle: saline) 111 % of control; (endpoint: mean survival time, dose: 120.0 mg/kg/injection, schedule: Q01DX009 (ip), vehicle: saline) 202 % of control and 218 % of control; (endpoint: mean survival time, dose: 150.0 mg/kg/injection, schedule: Q03DX008 (ip), vehicle: carboxymethylcellulose (CMC)) 205 % of control; under setting [2], 108 % of control and 124 % of control. Moreover, the T/C runs as follows: (endpoint: mean survival time, dose: 200.0 mg/kg/injection, schedule: Q01DX Z (im), vehicle: carboxymethylcellulose (CMC)) 158 % of control; (endpoint: mean survival time, dose: 200.0 mg/kg/injection, schedule: Q01DX Z (ip), vehicle: carboxymethylcellulose (CMC)) 162 % of control; (endpoint: mean survival time, dose: 200.0 mg/kg/injection, schedule: Q01DX Z (oral), vehicle: carboxymethylcellulose (CMC)) 90 % of control; (endpoint: mean survival time, dose: 200.0 mg/kg/injection, schedule: Q01DX Z (sc), vehicle: carboxymethylcellulose (CMC)) 158 % of control; (endpoint: mean survival time, dose: 300.0 mg/kg/injection, schedule: Q03DX008 (ip), vehicle: carboxymethylcellulose (CMC)) 181 % of control; (endpoint: mean survival time, dose: 350.0 mg/kg/injection, schedule: Q07DX004 (ip), vehicle: carboxymethylcellulose (CMC)) 215 % of control. In addition, the T/C under setting [3] is 102 % of control; the T/C (endpoint: mean survival time, dose: 400.0 mg/kg/injection, schedule: Q01DX001 (ip), vehicle: saline) was 114 % of control; the T/C (endpoint: mean survival time, dose: 400.0 mg/kg/injection, schedule: Q01DX Z (im), vehicle: carboxymethylcellulose (CMC)) is 100 % of control; the T/C (endpoint: mean survival time, dose: 400.0 mg/kg/injection, schedule: Q01DX Z (ip), vehicle: carboxymethylcellulose (CMC)) was 94 % of control; the T/C (endpoint: mean survival time, dose: 400.0 mg/kg/injection, schedule: Q01DX Z (sc), vehicle: carboxymethylcellulose (CMC)) was 98 % of control; the T/C (endpoint: mean survival time, dose: 400.0 mg/kg/injection, schedule: Q04DX003 (ip), vehicle: saline) is 153 % of control and 180 % of control. Further, the T/C runs as follows: (endpoint: mean survival time, dose: 600.0 mg/kg/injection, schedule: Q03DX003 (ip), vehicle: carboxymethylcellulose (CMC)) 90 % of control; (endpoint: mean survival time, dose: 700.0 mg/kg/injection, schedule: Q07DX004 (ip), vehicle: carboxymethylcellulose (CMC)) 100 % of control; (endpoint: mean survival time, dose: 800.0 mg/kg/injection, schedule: Q01DX001 (ip), vehicle: carboxymethylcellulose (CMC)) 98 % of control and 116 % of control; (endpoint: median survival time, dose: 10.0 mg/kg/injection, schedule: Q01DX009 (ip), vehicle: saline) 105 % of control and 87 % of control; (endpoint: median survival time, dose: 40.0 mg/kg/injection, schedule: Q01DX009 (ip), vehicle: saline) 150 % of control; (endpoint: median survival time, dose: 80.0 mg/kg/injection, schedule: Q01DX009 (ip), vehicle: saline) 181 % of control and 183 % of control.

For `CC(O)(CCc1ccccc1)CC(O)(C(F)(F)F)C(F)(F)F` (stereo unspecified), the T/C is, setting by setting: (endpoint: mean survival time, dose: 100.0 mg/kg/injection, schedule: Q04DX003 (ip), vehicle: saline with Tween-80) 101 % of control; (endpoint: mean survival time, dose: 200.0 mg/kg/injection, schedule: Q04DX003 (ip), vehicle: saline with Tween-80) 94 % of control; (endpoint: mean survival time, dose: 400.0 mg/kg/injection, schedule: Q04DX003 (ip), vehicle: saline with Tween-80) 95 % of control.

For `Sc1cccc2c(S)cccc12`, the T/C runs as follows: (endpoint: mean survival time, dose: 50.0 mg/kg/injection, schedule: Q01DX001 (ip), vehicle: carboxymethylcellulose (CMC)) 100 % of control; under setting [1], 97 % of control; under setting [2], 103 % of control; under setting [3], 100 % of control.

For `Cc1ccc2c(c1N)C(=O)c1ccccc1C2=O`, the T/C was 103 % of control under setting [1], 92 % of control under setting [2] and 96 % of control under setting [3].
